According to patent US4011307A, “Production of ^203 Pb-tris-hydroxymethyl amino methane” (The United States of America as represented by the United …, priority 1976, dated 1977):

Experiments:
[1] = test system: tissues of hamsters with eye melanoma; experiment: Distribution of carrier-free lead-203 tris in tissue at various times; type: in vivo, hamster
Protocol: The ^203 Pb-tris as described herein was injected in a relatively large number of mice and hamsters which were tumor bearing animals. […]

[2] = Toxicity effects from the presence of lead in the blood stream; type: in vivo; details: near carrier-free lead-203 complexed with tris
melanomas, tumors = experiment: Localization / tissue distribution study in tumor bearing animals; type: in vivo, mice and hamsters
Protocol: The ^203 Pb-tris as described herein was injected in a relatively large number of mice and hamsters which were tumor bearing animals.

tumors = details: previous attempts reported; cited from earlier work

Lead-203 tris-hydroxymethyl aminomethane
Distribution, Blood ([1]; Time 1, 60 min): 3.870 Percent Uptake per Gram of Tis | Distribution, Blood ([1]; Time 3, 180 min): 3.635 Percent Uptake per Gram of Tis | Distribution, Blood ([1]; Time 6, 360 min): 5.847 Percent Uptake per Gram of Tis | Distribution, Blood ([1]; Time 24, 1440 min): 3.007 Percent Uptake per Gram of Tis | Distribution, Blood ([1]; Time 72, 4320 min): 3.792 Percent Uptake per Gram of Tis | Distribution, Blood ([1]; Time 144, 8640 min): 0.852 Percent Uptake per Gram of Tis | Distribution, Bone ([1]; Time 1, 60 min): 3.977 Percent Uptake per Gram of Tis | Distribution, Bone ([1]; Time 3, 180 min): 3.991 Percent Uptake per Gram of Tis | Distribution, Bone ([1]; Time 6, 360 min): 5.320 Percent Uptake per Gram of Tis | Distribution, Bone ([1]; Time 24, 1440 min): 5.342 Percent Uptake per Gram of Tis | Distribution, Bone ([1]; Time 72, 4320 min): 9.761 Percent Uptake per Gram of Tis | Distribution, Bone ([1]; Time 144, 8640 min): 5.757 Percent Uptake per Gram of Tis | Distribution, Choroid ([1]; Time 1, 60 min): 1.109 Percent Uptake per Gram of Tis | Distribution, Choroid ([1]; Time 3, 180 min): 0.950 Percent Uptake per Gram of Tis | Distribution, Choroid ([1]; Time 6, 360 min): 0.337 Percent Uptake per Gram of Tis | Distribution, Choroid ([1]; Time 24, 1440 min): 0.361 Percent Uptake per Gram of Tis | Distribution, Choroid ([1]; Time 72, * 4 animals, 4320 min): 0.127 Percent Uptake per Gram of Tis | Distribution, Choroid ([1]; Time 144, 8640 min): 0.131 Percent Uptake per Gram of Tis | Distribution, Cornea ([1]; Time 1): 0.834 Percent Uptake per Gram of Tis | Distribution, Cornea ([1]; Time 3): 0.173 Percent Uptake per Gram of Tis | Distribution, Cornea ([1]; Time 6): 0.891 Percent Uptake per Gram of Tis | Distribution, Cornea ([1]; Time 24): 0.200 Percent Uptake per Gram of Tis | Distribution, Cornea ([1]; Time 72, * 4 animals): 0.084 Percent Uptake per Gram of Tis | Distribution, Cornea ([1]; Time 144): 0.062 Percent Uptake per Gram of Tis | Distribution, Gonads ([1]; Time 1, 60 min): 2.076 Percent Uptake per Gram of Tis | Distribution, Gonads ([1]; Time 3, 180 min): 0.238 Percent Uptake per Gram of Tis | Distribution, Gonads ([1]; Time 6, 360 min): 0.663 Percent Uptake per Gram of Tis | Distribution, Gonads ([1]; Time 24, 1440 min): 0.164 Percent Uptake per Gram of Tis | Distribution, Gonads ([1]; Time 144, 8640 min): 0.079 Percent Uptake per Gram of Tis | Distribution, Intestines ([1]; Time 1, 60 min): 0.841 Percent Uptake per Gram of Tis | Distribution, Intestines ([1]; Time 3, 180 min): 0.653 Percent Uptake per Gram of Tis | Distribution, Intestines ([1]; Time 6, 360 min): 1.593 Percent Uptake per Gram of Tis | Distribution, Intestines ([1]; Time 24, 1440 min): 1.664 Percent Uptake per Gram of Tis | Distribution, Intestines ([1]; Time 72, * 4 animals, 4320 min): 2.064 Percent Uptake per Gram of Tis | Distribution, Intestines ([1]; Time 144, 8640 min): 0.217 Percent Uptake per Gram of Tis | Distribution, Kidney ([1]; Time 1, 60 min): 25.32 Percent Uptake per Gram of Tis | Distribution, Kidney ([1]; Time 3, 180 min): 18.156 Percent Uptake per Gram of Tis | Distribution, Kidney ([1]; Time 6, 360 min): 17.703 Percent Uptake per Gram of Tis | Distribution, Kidney ([1]; Time 24, 1440 min): 10.508 Percent Uptake per Gram of Tis | Distribution, Kidney ([1]; Time 72, 4320 min): 17.443 Percent Uptake per Gram of Tis | Distribution, Kidney ([1]; Time 144, 8640 min): 3.904 Percent Uptake per Gram of Tis | Distribution, Lens ([1]; Time 1, 60 min): 0.017 Percent Uptake per Gram of Tis | Distribution, Lens ([1]; Time 3, 180 min): 0.023 Percent Uptake per Gram of Tis | Distribution, Lens ([1]; Time 6, 360 min): 0.021 Percent Uptake per Gram of Tis | Distribution, Lens ([1]; Time 24, 1440 min): 0.005 Percent Uptake per Gram of Tis | Distribution, Lens ([1]; Time 72, * 4 animals, 4320 min): 0.006 Percent Uptake per Gram of Tis | Distribution, Lens ([1]; Time 144, 8640 min): 0.005 Percent Uptake per Gram of Tis | Distribution, Liver ([1]; Time 1, 60 min): 5.463 Percent Uptake per Gram of Tis | Distribution, Liver ([1]; Time 3, 180 min): 4.273 Percent Uptake per Gram of Tis | Distribution, Liver ([1]; Time 6, 360 min): 7.188 Percent Uptake per Gram of Tis | Distribution, Liver ([1]; Time 24, 1440 min): 3.729 Percent Uptake per Gram of Tis | Distribution, Liver ([1]; Time 72, 4320 min): 4.841 Percent Uptake per Gram of Tis | Distribution, Liver ([1]; Time 144, 8640 min): 2.331 Percent Uptake per Gram of Tis | Distribution, Melanoma-Eye ([1]; Time 1, 60 min): 1.048 Percent Uptake per Gram of Tis | Distribution, Melanoma-Eye ([1]; Time 3, 180 min): 0.976 Percent Uptake per Gram of Tis | Distribution, Melanoma-Eye ([1]; Time 6, 360 min): 1.609 Percent Uptake per Gram of Tis | Distribution, Melanoma-Eye ([1]; Time 24, 1440 min): 1.314 Percent Uptake per Gram of Tis | Distribution, Melanoma-Eye ([1]; Time 72, * 4 animals, 4320 min): 0.724 Percent Uptake per Gram of Tis | Distribution, Melanoma-Eye ([1]; Time 144, 8640 min): 0.821 Percent Uptake per Gram of Tis | Distribution, Melanoma-Skin ([1]; Time 1, 60 min): 1.095 Percent Uptake per Gram of Tis | Distribution, Melanoma-Skin ([1]; Time 3, 180 min): 1.051 Percent Uptake per Gram of Tis | Distribution, Melanoma-Skin ([1]; Time 6, 360 min): 1.209 Percent Uptake per Gram of Tis | Distribution, Melanoma-Skin ([1]; Time 24, 1440 min): 0.845 Percent Uptake per Gram of Tis | Distribution, Melanoma-Skin ([1]; Time 72, 4320 min): 1.010 Percent Uptake per Gram of Tis | Distribution, Melanoma-Skin ([1]; Time 144, 8640 min): 0.749 Percent Uptake per Gram of Tis | Distribution, Muscle ([1]; Time 1): 0.159 Percent Uptake per Gram of Tis | Distribution, Muscle ([1]; Time 3): 0.100 Percent Uptake per Gram of Tis | Distribution, Muscle ([1]; Time 6): 0.090 Percent Uptake per Gram of Tis | Distribution, Muscle ([1]; Time 24): 0.026 Percent Uptake per Gram of Tis | Distribution, Muscle ([1]; Time 72): 0.041 Percent Uptake per Gram of Tis | Distribution, Muscle ([1]; Time 144, 8640 min): 0.027 Percent Uptake per Gram of Tis | Distribution, Normal-Eye ([1]; Time 1, 60 min): 0.200 Percent Uptake per Gram of Tis | Distribution, Normal-Eye ([1]; Time 3, 180 min): 0.086 Percent Uptake per Gram of Tis | Distribution, Normal-Eye ([1]; Time 6, 360 min): 0.111 Percent Uptake per Gram of Tis | Distribution, Normal-Eye ([1]; Time 24, 1440 min): 0.054 Percent Uptake per Gram of Tis | Distribution, Normal-Eye ([1]; Time 72, 4320 min): 0.084 Percent Uptake per Gram of Tis | Distribution, Normal-Eye ([1]; Time 144, 8640 min): 0.047 Percent Uptake per Gram of Tis | Distribution, Normal-Skin ([1]; Time 1, 60 min): 0.401 Percent Uptake per Gram of Tis | Distribution, Normal-Skin ([1]; Time 3, 180 min): 0.256 Percent Uptake per Gram of Tis | Distribution, Normal-Skin ([1]; Time 6, 360 min): 0.286 Percent Uptake per Gram of Tis | Distribution, Normal-Skin ([1]; Time 24, 1440 min): 0.090 Percent Uptake per Gram of Tis | Distribution, Normal-Skin ([1]; Time 72, 4320 min): 0.122 Percent Uptake per Gram of Tis | Distribution, Normal-Skin ([1]; Time 144, 8640 min): 0.071 Percent Uptake per Gram of Tis | Distribution, Retina ([1]; Time 1, 60 min): 0.169 Percent Uptake per Gram of Tis | Distribution, Retina ([1]; Time 3, 180 min): 0.074 Percent Uptake per Gram of Tis | Distribution, Retina ([1]; Time 6, 360 min): 0.251 Percent Uptake per Gram of Tis | Distribution, Retina ([1]; Time 24, 1440 min): 0.206 Percent Uptake per Gram of Tis | Distribution, Retina ([1]; Time 72, * 4 animals, 4320 min): 0.091 Percent Uptake per Gram of Tis | Distribution, Retina ([1]; Time 144, 8640 min): 0.127 Percent Uptake per Gram of Tis | Distribution, Vitreous ([1]; Time 1, 60 min): 0.031 Percent Uptake per Gram of Tis | Distribution, Vitreous ([1]; Time 3, 180 min): 0.028 Percent Uptake per Gram of Tis | Distribution, Vitreous ([1]; Time 6, 360 min): 0.036 Percent Uptake per Gram of Tis | Distribution, Vitreous ([1]; Time 24, 1440 min): 0.031 Percent Uptake per Gram of Tis | Distribution, Vitreous ([1]; Time 72, * 4 animals, 4320 min): 0.014 Percent Uptake per Gram of Tis | Distribution, Vitreous ([1]; Time 144, 8640 min): 0.018 Percent Uptake per Gram of Tis | Toxicity effects from the presence of lead in the blood stream [2]: avoided or minimized | Ability to localize in melanomas (melanomas, tumors; extensive studies): has the ability to localize in melanomas, especially those of the eye | Uptake of ^203 Pb by the tumors (melanomas, tumors; tumor bearing mice and hamsters, injected, tissue distribution): selective uptake by the tumors

lead
Outcome of previous attempts to use lead as agent for the treatment of tumors (tumors): apparently failed to produce useful results due to the toxicity of lead in the bloodstream
